This is an account of results in article PMC12308784, “Organometallic Half-Sandwich Complexes of 1,10-Phenanthroline Derivatives with Improved Solubility, Albumin-Binding, and Nanoformulation Potential Targeting Drug Resistance in Cancer” (Inorganic Chemistry, 2025).

The test system of experiment [1] is MDA-MB-231, MCF-7 and T-47D breast cancer cell lines. Kind of experiment: PrestoBlue cytotoxicity, range over the three breast cancer lines. The class given is cell-based. The following applies: MDA-MB-231, MCF-7, T-47D; 72 h. On the procedure: The PHEN-derived ligands (DCP, BP) (together with PHEN for comparison) and the isolated complexes ([RuCym(DCP)-Cl]-Cl, [RhCp*(DCP)-Cl]-Cl, [RuCym(BP)-Cl]-Cl, [RhCp*(BP)-Cl]-Cl) were tested against the estrogen receptor (ER) negative MDA-MB-231, and the ER positive MCF-7 and T-47D breast cancer cell lines (Table , and Figure a for easier comparison).
(§1) MDA-MB-231 breast adenocarcinoma and MCF-7 and T-47D invasive breast carcinomas were purchased from the Developmental Therapeutic Program of the National Cancer Institute (NIH, USA), and they were cultured in RPMI medium (Thermo Fisher). MES–SA and MES–SA/Dx5 uterine sarcoma cell lines were purchased from American Type Culture Collection and were kept in DMEM (Thermo Fisher). MES–SA/B1 was created by the transfection of the human MDR1 gene in MES–SA, and MES–SA mCherry, MES–SA/B1 mOrange, and MES–SA/Dx5 eGFP were engineered to stably express the respective fluorescent proteins, as described previously. Culture media were supplemented with 10% fetal bovine serum, 2 mM L-glutamine, 100 units/mL penicillin, and 100 μg/mL streptomycin (Thermo Fisher). Cells were kept at 37 °C under 5% CO2 and were negative for mycoplasma infection.
(§2) Cytotoxicity of the nonfluorescent cancer cells (MDA-MB-231, MCF-7, T-47D) were assessed with PrestoBlue cell viability reagent (Thermo Fisher). Briefly, 2500 cells/well were seeded on 384-well plates, and then the next day drugs were added. After 72 h incubation, PrestoBlue was added in a 10% final concentration, and after an hour of additional incubation, plates were measured with a PerkinElmer EnSpire plate reader at 555 nm/585 nm excitation/emission wavelengths. Fluorescent cells (MES-SA mCherry, MES-SA/B1 mOrange, MES-SA/Dx5 eGFP) were admixed before seeding on 384-well plates at 800 cells/well density each, thus altogether 2400 cells/well. Drugs were added the following day, and the intensity of the fluorescent proteins were measured after 144 h incubation at the respective fluorescent channels (excitation/emission: eGFP: 485 nm/510 nm; mCherry: 585 nm/610 nm; mOrange: 545 nm/567 nm). pIC50 values were calculated by a custom program written by Judit Sessler in C#. IC50 values and standard deviation were calculated from average pIC50 values from at least 3 independent measurements.

In experiment [2] the test system is T47D. As to the kind of experiment: PrestoBlue cytotoxicity assay. The class given is cell-based. On the procedure:
as §1
as §2, with “measurements. Since the IC50 values were obtained through nonlinear regression fitting of the viability vs. log(concentration) data, the resulting confidence intervals are inherently asymmetric (see pIC50 values and their corresponding SD in Tables S5 and S6).” for “measurements.”

Experiment [3] relates to MCF-7. As to the kind of experiment: PrestoBlue cytotoxicity assay. The class given is cell-based. Here is the method: as §1
as §2, with “measurements. Since the IC50 values were obtained through nonlinear regression fitting of the viability vs. log(concentration) data, the resulting confidence intervals are inherently asymmetric (see pIC50 values and their corresponding SD in Tables S5 and S6).” for “measurements.”

The test system of experiment [4] is MDA-MB-231. Kind of experiment: PrestoBlue cytotoxicity assay. In kind it is cell-based. Here is the method:
as §1
as §2, with “measurements. Since the IC50 values were obtained through nonlinear regression fitting of the viability vs. log(concentration) data, the resulting confidence intervals are inherently asymmetric (see pIC50 values and their corresponding SD in Tables S5 and S6).” for “measurements.”

Experiment [5] has as its system MES-SA/Dx5-eGFP. As to the kind of experiment: fluorescent triple coculture cytotoxicity assay. In kind it is cell-based, human. As to conditions: 384-well plate; for SR (MES-SA/Dx5): selectivity ratio versus parental MES-SA.
Source text: (§3) Cytotoxicity of the compounds were further tested also in an in vitro MDR model system, consisting of an MES-SA uterine sarcoma cell line, and its P-gp (ABCB1) overexpressing variants MES-SA/B1, that was genetically engineered to express P-gp, and MES-SA/Dx5, which acquired a P-gp-mediated MDR phenotype due to selection in doxorubicin. , The expression of different fluorescent proteins in each line (mCherry, mOrange, or eGFP) allowed coculturing of these three cell lines, providing more relevant data compared to monocultures, as the interaction between parental and resistant phenotypes is reflected in cytotoxicity.
(§4) Cytotoxicity of nanoformulated [RhCp*(BP)-Cl]-Cl with cross-linked HSA and HTP carriers was tested against the previously introduced triple coculture of fluorescent MES-SA cells with a slight difference. Namely, the media containing the dissolved products were removed from the wells, and fresh media was added prior to the measurement as the presence of cross-linked HSA and HTP formulations interfered with the fluorescence of the cells.
as §1
as §2, with “Fluorescent cells (MES-SA mCherry, MES-SA/B1 mOrange, MES-SA/Dx5 eGFP) were admixed before seeding on 384-well plates at 800 cells/well density each, thus altogether 2400 cells/well.” left out, “measurements. Since the IC50 values were obtained through nonlinear regression fitting of the viability vs. log(concentration) data, the resulting confidence intervals are inherently asymmetric (see pIC50 values and their corresponding SD in Tables S5 and S6).” for “measurements.”

Experiment [6] deals with MES-SA mCherry. Kind of experiment: fluorescent triple coculture cytotoxicity assay. The class given is cell-based, human. As to conditions: 384-well plate.
Source text: as §3, §4, §1
as §2, with “Fluorescent cells (MES-SA mCherry, MES-SA/B1 mOrange, MES-SA/Dx5 eGFP) were admixed before seeding on 384-well plates at 800 cells/well density each, thus altogether 2400 cells/well.” left out, “measurements. Since the IC50 values were obtained through nonlinear regression fitting of the viability vs. log(concentration) data, the resulting confidence intervals are inherently asymmetric (see pIC50 values and their corresponding SD in Tables S5 and S6).” for “measurements.”

The test system of experiment [7] is MES-SA/B1-mOrange. As to the kind of experiment: fluorescent triple coculture cytotoxicity assay. The class given is cell-based, human. As to conditions: 384-well plate; for SR (MES-SA/B1): selectivity ratio versus parental MES-SA.
Source text: as §3, §4, §1
as §2, with “Fluorescent cells (MES-SA mCherry, MES-SA/B1 mOrange, MES-SA/Dx5 eGFP) were admixed before seeding on 384-well plates at 800 cells/well density each, thus altogether 2400 cells/well.” left out, “measurements. Since the IC50 values were obtained through nonlinear regression fitting of the viability vs. log(concentration) data, the resulting confidence intervals are inherently asymmetric (see pIC50 values and their corresponding SD in Tables S5 and S6).” for “measurements.”

Experiment [8] concerns the target T1, human serum albumin (HSA), Trp-214 in Sudlow’s site I (Homo sapiens, UniProt P02768).
T1 construct: purchased Sigma-Aldrich A8763
As to conditions: cited from earlier work; for logK Q′ (quenching constant): organometallic precursors, PBS’, t = 25 °C.

Experiment [9] deals with T2, HSA Sudlow’s site I (IIA subdomain) (Homo sapiens, UniProt P02768).
T2 construct: purchased Sigma-Aldrich A8763
As to conditions: organometallic precursors; PBS’; t = 25 °C; ref footnote a (ref 56); cited from earlier work.

[10] abbreviates: Homo sapiens, 72 h, 384-well plate, read-out: IC50.
Setting [11] is: Homo sapiens, Table S5, read-out: pIC50 (mean) (converted).
The mark [12] stands for this setting: Homo sapiens, MES-SA/Dx5-eGFP, coculture, 144 h, read-out: IC50.
The mark [13] stands for this setting: Homo sapiens, Mes-Sa/Dx5 eGFP, Table S6, read-out: pIC50 (mean) (converted).
Setting [14] is: Homo sapiens, MES-SA, 144 h, MES-SA mCherry, coculture, 144 h, read-out: IC50.
Setting [15] is: Homo sapiens, MES-SA, Mes-Sa mCherry, Table S6, read-out: pIC50 (mean) (converted).
Setting [16] is: MES-SA mCherry, coculture, 144 h, read-out: IC50.
Where [17] appears, read: Homo sapiens, MES-SA/B1-mOrange, coculture, 144 h, read-out: IC50.
The mark [18] stands for this setting: Homo sapiens, Mes-Sa/B1 mOrange, Table S6, read-out: pIC50 (mean) (converted).
Setting [19] is: 72 h, 384-well plate, read-out: IC50.

Like-named read-outs stand apart in the source and are kept apart here. Marks after values point to notes of the source that are not given here.

T1 sequence (P02768 25-609): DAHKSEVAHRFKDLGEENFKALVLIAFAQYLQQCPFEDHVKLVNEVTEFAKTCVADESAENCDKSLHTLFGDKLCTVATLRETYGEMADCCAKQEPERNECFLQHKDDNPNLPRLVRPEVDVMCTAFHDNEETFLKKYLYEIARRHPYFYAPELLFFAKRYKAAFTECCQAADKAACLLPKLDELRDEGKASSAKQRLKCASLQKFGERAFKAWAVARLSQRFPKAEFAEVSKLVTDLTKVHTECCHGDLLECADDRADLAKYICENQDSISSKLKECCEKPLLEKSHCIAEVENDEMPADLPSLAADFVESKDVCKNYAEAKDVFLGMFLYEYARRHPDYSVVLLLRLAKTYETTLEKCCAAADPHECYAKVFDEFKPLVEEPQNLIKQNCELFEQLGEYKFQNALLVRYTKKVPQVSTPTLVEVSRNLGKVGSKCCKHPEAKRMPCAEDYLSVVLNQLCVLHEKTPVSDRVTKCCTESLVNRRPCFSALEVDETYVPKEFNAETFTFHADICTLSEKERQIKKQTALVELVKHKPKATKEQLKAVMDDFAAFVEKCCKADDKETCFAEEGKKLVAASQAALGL
T2 sequence (P02768 25-609): as above

Consider `c1cnc2c(c1)ccc1cccnc12` [PHEN, 1,10-phenanthroline], for which the IC50 in experiment [1] is 3200 to 8600 nM; in [2] (setting [10]) it was 5470 nM; in [2] (setting [11]), 5500 nM; in experiment [3] (Homo sapiens, MCF7, 72 h, 384-well plate, read-out: IC50), 8570 nM; in experiment [3] (Homo sapiens, MCF7, Table S5, read-out: pIC50 (mean) (converted)), 8510 nM; in experiment [4] (setting [10]) it was 3200 nM. Further, the IC50 in experiment [4] (setting [11]) is 3160 nM; in [5] (setting [12]), 410 nM; in experiment [5] (setting [13]) it was 417 nM; in experiment [6] (setting [14]), 3000 nM; in [6] (setting [15]) it was 2950 nM; in experiment [6] (setting [16]) it was 2950 nM. In addition, the IC50 in [7] (setting [17]) was 1390 nM; in experiment [7] (setting [18]), 1380 nM. The “SR (MES-SA/Dx5)” value in experiment [5] worked out at 7.1. Further, the “SR (MES-SA/B1)” value in experiment [7] came out at 2.1.

Take `[Ru].c1cnc2c(c1)ccc1cccnc12.c1cnc2c(c1)ccc1cccnc12.c1cnc2c(c1)ccc1cccnc12` [[Ru(PHEN)3]^2+]: in experiment [8] (ref number not given), the “interaction with HSA” value is recorded as “negligible interaction”.

For `N.N.[Cl][Pt][Cl]` [cisplatin], the IC50 is 3200 to 7000 nM in experiment [1]; 6980 nM in experiment [2] (setting [19]); 4780 nM in experiment [3] (setting [19]); 3160 nM in [4] (setting [19]); 4280 nM in [5] (MES-SA/Dx5-eGFP, coculture, 144 h, read-out: IC50); 1490 nM in experiment [6] (setting [16]). Moreover, the IC50 in experiment [7] (MES-SA/B1-mOrange, coculture, 144 h, read-out: IC50) amounted to 1710 nM. Besides, the “pIC50 (mean)” value in experiment [2] (Table S5) was 5.16; in experiment [3] (Table S5), 5.32; in experiment [4] (Table S5) it was 5.50; in experiment [5] (Mes-Sa/Dx5 eGFP, Table S6), 5.37; in experiment [6] (Mes-Sa mCherry, Table S6), 5.83; in experiment [7] (Mes-Sa/B1 mOrange, Table S6) it was 5.77. The “SR (MES-SA/Dx5)” value in experiment [5] was found to be 0.3. The “SR (MES-SA/B1)” value in [7] was determined as 0.9.

Take `COc1cc([C@@H]2c3cc4c(cc3[C@@H](O[C@@H]3O[C@@H]5CO[C@@H](C)O[C@H]5[C@H](O)[C@H]3O)[C@H]3COC(=O)[C@H]23)OCO4)cc(OC)c1O` [etoposide]: the IC50 is 2080 nM in experiment [5] (setting [12]); 2090 nM in experiment [5] (setting [13]); 200 nM in [6] (setting [14]); 200 nM in experiment [6] (setting [15]); 1190 nM in experiment [7] (setting [17]); 1170 nM in [7] (setting [18]). Further, the “resistance of MES-SA/Dx5 versus parental line” value in [5] (coculture) is listed as 10 fold. Besides, the “SR (MES-SA/Dx5)” value in [5] is recorded as 0.1. Moreover, the “resistance of MES-SA/B1 versus parental line” value in [7] (coculture) is on record as 6 fold. Moreover, the “SR (MES-SA/B1)” value in [7] stood at 0.2.

With [Rh(η^5-C5Me5)Cl2]2 [RhCp*precursor], the results for the “logK Q′ (quenching constant)” value in [8] and in experiment [8] (listed as precursor RhCp*) were 5.8 ^a and 5.8, respectively. Further, the “logK WF′ (WF displacement constant)” value in experiment [9] is 6.1 ^a.

With “[Ru(η^6-p-cymene)Cl2]2 [RuCym precursor]”, in experiment [8], the “logK Q′ (quenching constant)” value is given as 5.7 ^a. In addition, in experiment [9], the “logK WF′ (WF displacement constant)” value is listed as 5.9 ^a.
